{
  "source": "patent US8623919B2",
  "about": "“Method of synthesizing S-allyl-cysteine analogues and their therapeutic application in treating myocardial infarction” (Fudan University, priority 2007, dated 2014)",
  "key": {"CSE": {"test_system": "CSE", "assay": "Western blot of CSE protein in left ventricle", "assay_type": "in vivo, SD rats", "details": "MI rats, 50 mg/Kg/day, p<0.01", "excerpt": "(§1) Animals were assigned and prepared the same as in Example 7, and dosages of SPRC and SAC were used the same in this example as in Example 7."}, "myocardial cells": {"test_system": "myocardial cells", "assay": "SOD activity (Hydroxylamine method) in hypoxia/reoxygenation injured myocardial cells", "assay_type": "cell-based, Sprague-Dawley (SD) rat", "procedure": "Myocardial cell samples were obtained from the same procedure of Example 1, the experiment groups were divided and hypoxia/reoxygenation experiments were performed on Control group, Vehicle group, SAC and analogue groups, same as the experiments in Example 1 with the same dosages and same conditions. Myocardial cells were obtained from each sample (10^6 myocardial cells/sample) from the Control group, Vehicle group, SAC and analogue groups. The cells were lysed under sterilized condition, and SOD (superoxide dismutase) activities in each sample of the cells were determined by Hydroxylamine method (a conventional method well known in the arts) using each microgram of protein per 1 milliliter reaction solution inhibits SOD activity to its 50% of original activity, in which the amount of SOD used in the reaction as standard of 1 unit of SOD activity."}, "rats following MI injury": {"test_system": "rats following MI injury", "assay": "MDA content (TBA assay) in rats (sham or MI)", "assay_type": "in vivo, SD rats", "details": "Sham rats; 50 mg/Kg/day intraperitoneal", "procedure": "as §1\nSerum CK levels were detected with diagnostic kit (NJBI, China) according to the instructions. LDH were determined calorimetrically with a spectrophotometer. Lipid peroxidation was measured in terms of MDA content using the thiobarbituric acid (TBA) assay. […] With regard to lipid peroxidation, the levels of MDA in MI groups increased at 48 h after myocardial infarction. […] (FIG. 14)"}, "Bax": {"test_system": "Bax", "assay": "Western blot of Bax protein in left ventricle", "assay_type": "in vivo, SD rats", "details": "MI rats, 50 mg/Kg/day, p<0.01", "excerpt": "as §1"}},
  "data": [
    {"molecule": "C#CCSC[C@H](N)C(=O)O", "note": "[SPRC, S-propargyl-cysteine]", "values": [
      {"measurement": "CSE protein expression", "setting": "CSE", "value": "up-regulated"},
      {"measurement": "Mn-SOD activity in mitochondria", "setting": "myocardial cells; 10^−5 mol/L", "value": "able to elevate"},
      {"measurement": "effect of PAG on elevating Mn-SOD activity", "setting": "myocardial cells; with PAG", "value": "PAG also reversed"},
      {"measurement": "MDA", "setting": "rats following MI injury", "value": "3.79 ± 0.40", "unit": "nmol/mL"},
      {"measurement": "Bax protein levels", "setting": "Bax", "value": "down-regulated"}
    ]}
  ]
}
